The values below come from PMC12677843, “Multidisciplinary Preclinical Investigations on Ferrocenyl, Ruthenocenyl, and Benzyl Derivatives of Niridazole as New Drug Candidates against Schistosomiasis” (Chemmedchem, 2025).

One data set concerns adult S. mansoni. Description: In vitro drug sensitivity assay on adult S. mansoni (microscopic viability scoring). It is filed as cell-based, Schistosoma mansoni. Particulars: for EC50: Schistosoma mansoni, 37 °C, 5% CO2. On the procedure:
Figure 3 In vitro activity at 50 µM of the 12 compounds on adult S. mansoni. Adult schistosomes were incubated in culture media for 72 h at 37 °C and 5% CO2 with either compound (50 µM) or a DMSO (0.5%) control. The viability of the worms was microscopically evaluated and scored (0—3, in 0.5 steps) every 24 h. Results are from two independent experiments, each performed in duplicate. Drug activities were normalized to the DMSO controls. Data represent mean ± SD in percentage of DMSO control. […]
In vitro evaluation on adult S. mansoni
After a week for acclimatization to the new environment with controlled conditions (temperature: 22 °C ± 2 °C, humidity: 50 % ± 10 %, 12:12 h light/dark photocycle), four-week-old female NMRI mice (Charles River, Sulzfeld, Germany) were subcutaneously infected with approximately 100 cercariae to establish the S. mansoni infection. In the S. mansoni infected mice the worms were allowed to develop for 7 weeks into the adult stage, before they were extracted from the mesenteric veins of the euthanized mice. The adult worms were placed into RPMI 1640 (Gibco, Waltham MA, USA) medium supplemented with 1 % penicillin/streptomycin mixture and 5 % iFCS at 37 °C and 5 % CO 2. The drug sensitivity assay was set up in a 24-well plate with two wells containing each two pairs of S. mansoni worms per compound and concentration.
The final volume per well was 2 mL, containing the culture medium and the corresponding amount of drug dissolved in DMSO. The maximum concentration tested was 50 µM, corresponding to 0.5 % DMSO, to which all the other wells were adapted […]
(§1) to, so that all test concentrations contained always the same amount of DMSO.
(§2) Additionally, 2 wells with negative controls containing only DMSO and the culture medium were included. After an incubation period of 72 h at 37 °C and 5 % CO 2, the worms were microscopically evaluated. The drug effect was determined 24, 48 and 72 h post-exposure based on the phenotype of the adult worms, using a viability scale ranging from three referring to viable, motile worms with no change in their tegument to zero standing for the death of the worms.
All described in vitro studies with mice involved, were conducted at the Swiss Tropical and Public Health Institute, first in Basel, later in Allschwil, and had the approval by the corresponding veterinary authorities of the Canton Basel-Stadt (permit no. 2070)

In data set [1] the test system is HUH7 hepatocarcinoma cells. Description: XTT mitochondrial activity/cell viability assay, HUH7. It is filed as cell-based. Particulars: 20 µM, 24 h, serum-free media, vs DMSO control (0.2%). The procedure:
Results were normalized to the DMSO control. […]
as §1, §2
All described in vitro studies with mice involved, were conducted at the Swiss Tropical and Public Health Institute, first in Basel, later in Allschwil, and had the approval by the corresponding veterinary authorities of the Canton Basel-Stadt (permit no. 2070) […]
Following 24 h of incubation, 12.5 μL of an XTT/phenazine methosulfate (PMS) (XTT Sigma Aldrich cat X4626, PMS Serva CAT: 3203) 0.02solution (1 mg/mL XTT and 7.5 μg/mL PMS) was added to each well. Absorbance was measured using a microplate reader (Biotek Synergy HT) at 450 nm (signal) and 650 nm (background), 2 h after the addition of the XTT/PMS solution. […] Mean ± SD was determined from three independent experiments, each performed in quintuplicate. […]
The cytotoxic potential was additionally evaluated using the staining-based SYTOX viability assay. […]

Data set [2] concerns S. mansoni newly transformed schistosomula (NTS). Description: In vitro evaluation on newly transformed schistosomula (NTS). It is filed as cell-based, Schistosoma mansoni. On the procedure: 2. Experimental section for biological experiments
Stock solutions of the test compounds
Stock solution of a concentration of 10 mM in pure DMSO (Sigma-Aldrich, Switzerland) were prepared of the 12 compounds, these stock solutions were used for all in vitro evaluations from activity tests in S. mansoni to the cytotoxic determinations in HUH7 hepatocyte-derived carcinoma cells, and in SH-SY5Y neuroblastoma cells.
The solutions were thoroughly vortexed and sonicated to enable a good dissolution of the compounds and homogenous stock solutions.
2.1 In vitro evaluations in S. mansoni
In vitro evaluation on newly transformed schistosomula (NTS)
To obtain newly transformed schistosomula (NTS) the lifecycle of S. mansoni (strain originates from West Africa, Liberia) is maintained at the Swiss Tropical and Public Health Institute (Swiss TPH). As previously described, cercariae are collected from infected Biomphalaria glabrata snails and then mechanically transformed into NTS. 8 After HBSS (Gibco, Waltham MA, USA) washing to get rid of the detached tails, the NTS were kept overnight (min. 12 h, max. 24 h) in culture medium at 37 °C and 5 % CO2 to complete their transformation process, before the drug sensitivity assay was started. The drug assays were performed in the same culture medium consisting of medium M199 (Gibco, Waltham MA, USA) supplemented with 5 % v/v inactivated fetal calf serum (iFCS; Bioconcept AG, Allschwil, Switzerland), 1% antibiotics mixture developed by Mäser et al., 9 and 1 % penicillin 10,000 U/mL, and streptomycin 10 mg/mL solution (Sigma-Aldrich, Buchs, Switzerland). The assay was performed in a 96-well plate, with 30−40 NTS per well in a final volume of 250 μL. NTS incubated in culture medium containing 0.5 % DMSO but no drug served as negative controls.
Microscopic evaluation was performed after 24, 48 and 72 h of incubation of the parasites at 37 °C and 5 % CO 2. Their overall viability was scored from 0 (death) to 3 (full viability) by a phenotypic screening method based on their motility, morphology, […]
and granularity. […]

Where two headings read alike, the source gives them in different places. Some results are limits rather than exact numbers.

In the case of `O=C1NCCN1c1ncc([N+](=O)[O-])s1` [Niridazole, niridazole], in the data set with adult S. mansoni (50 µM, 72 h incubation, normalized to DMSO control, active if ≥60%), the “drug effect at 50 µM on adult S. mansoni” value is recorded as 83%. The EC50 is more than 50 µM in the data set with adult S. mansoni (24 h, 24 h drug exposure, read-out: EC50 on adult S. mansoni, 24 h); 7.8 µM in the data set with adult S. mansoni (48 h, 48 h drug exposure, read-out: EC50 on adult S. mansoni, 48 h); 5.6 µM with adult S. mansoni (72 h, 72 h drug exposure, read-out: EC50 on adult S. mansoni, 72 h); more than 50 µM in data set [2] (Schistosoma mansoni, 72 h incubation, 37 °C, 5% CO2). Besides, the “XTT activity in HUH7 cells compared to DMSO control” value in data set [1] is recorded as “no signs of toxicity”. The “drug effect at 50 µM on S. mansoni NTS” value in data set [2] (highest tested concentration 50 µM) was “not impaired”.

Usually EC50 stands for the concentration needed to bring the measured effect to its halfway point.
